{"source": "paper PMC4102551", "about": "“Screening and Characterisation of Antimicrobial Properties of Semisynthetic Betulin Derivatives” (PLoS ONE, 2014)", "key": {"[1]": {"system": "C. albicans ATCC 90028", "test": "Broth microdilution assay, C. albicans", "format": "cell-based, Candida albicans", "outline": "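Candida albicans ATCC 90028 was grown on Sabouraud Dextrose Agar at 27°C for 16–18 h, then suspended in sterile 0.9% saline. Broth microdilution in clear 96-well plates mixed equal volumes of yeast suspension and diluted sample. Plates were incubated with agitation at 35°C for 48 h. Absorbance at 620 nm was read at 0, 24 and 48 h, and growth inhibition was expressed as a percentage relative to controls.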"}, "[2]": {"system": "E. aerogenes ATCC 13048", "test": "Broth microdilution assay, E. aerogenes", "format": "cell-based, Enterobacter aerogenes", "conditions": "Klebsiella aerogenes, ATCC13048, 24 h, 50 µM, 24 h, inhibition of growth, mean ± SD; read-out: Inhibitory effect (%) E. aerogenes ATCC 13048", "outline": "(§1)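 Broth microdilution per CLSI/EUCAST in Mueller Hinton II broth, 5×10^5 cfu/mL, 24 h at 37°C with agitation; growth by absorbance at 620 nm versus controls. Compounds first screened at 50 µM.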"}, "[3]": {"system": "E. coli", "set-up": "method as in earlier work", "conditions": "ref 32; cited from earlier work"}, "[4]": {"system": "C. albicans", "conditions": "cited from earlier work"}, "[5]": {"system": "P. aeruginosa ATCC 27853", "test": "Broth microdilution assay, P. aeruginosa", "format": "cell-based, Pseudomonas aeruginosa", "conditions": "Pseudomonas aeruginosa, ATCC27853, 24 h; read-out: Inhibitory effect (%) P. aeruginosa ATCC 27853", "outline": "as §1"}, "[6]": {"test": "Storage stability of samples", "format": "physicochemical", "conditions": "ambient temperature, air atmosphere, several years", "from_the_text": "Betulin 1 is a stable compound, as we have not noticed any degradation of samples even if stored at ambient temperature under air atmosphere for several years. […] Thus, instability issues cannot be seen as a major concern regarding the betulin derivatives of this study."}, "[7]": {"system": "S. aureus ATCC 25923", "test": "Broth microdilution assay, S. aureus", "format": "cell-based, Staphylococcus aureus", "conditions": "Staphylococcus aureus, ATCC25923, 24 h, 50 µM, 24 h, inhibition of growth, mean ± SD; read-out: Inhibitory effect (%) S. aureus ATCC 25923", "outline": "as §1"}, "[8]": {"system": "S. aureus", "set-up": "method as in earlier work", "conditions": "ref 32; cited from earlier work"}, "[9]": {"system": "E. faecalis ATCC 29212", "test": "Broth microdilution assay, E. faecalis", "format": "cell-based, Enterococcus faecalis", "conditions": "50 µM, 24 h, inhibition of growth, mean ± SD", "outline": "as §1"}, "[10]": {"system": "Streptococcus pyogenes", "set-up": "method as in PMID 29255382", "conditions": "ref 11; cited from earlier work"}, "[11]": {"system": "E. coli ATCC 25922", "test": "Broth microdilution assay, E. coli", "format": "cell-based, Escherichia coli", "conditions": "Escherichia coli, ATCC25922, 24 h; read-out: Inhibitory effect (%) E. coli ATCC 25922", "outline": "as §1"}, "[12]": {"system": "P. aeruginosa", "set-up": "method as in earlier work", "conditions": "ref 32; cited from earlier work"}, "[13]": {"test": "in vitro", "format": "cell-based, human", "conditions": "human, 50 µM, 24 h exposure, ATP content, 5% FBS; read-out: Cytotoxicity (%) Huh-7 cells", "outline": "(§2)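 Cytotoxicity read-out: intracellular ATP (CellTiter-Glo luminescence) in Huh-7 hepatoma cells seeded at 20000 cells/well, cultured overnight, then exposed to compounds for 24 h at 37°C in 5% FBS medium. Polymyxin B sulphate (15000 IU/mL) served as positive control.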"}, "[14]": {"system": "Huh-7 cells", "test": "in vitro", "format": "cell-based, human", "conditions": "50 µM, 24 h exposure, ATP content, 5% FBS", "outline": "as §2"}}, "note": "Where two headings read alike, the source gives them in different places.", "data": [{"smiles": "C=C(C)[C@@H]1CC[C@]2(CO)CC[C@]3(C)[C@H](CC[C@@H]4[C@@]5(C)CC[C@H](O)C(C)(C)[C@@H]5CC[C@]43C)[C@@H]12", "note": "[Compound 1, lup-20(29)-ene-3β, 28-diol]", "values": [{"measurement": "Inhibitory effect (%) C. albicans ATCC 90028", "setting": "[1]; 50 µM, 48 h at 35°C, inhibition of growth, mean ± SD", "result": "inactive"}, {"measurement": "inhibition at 50 µM", "setting": "[1]; Candida albicans, ATCC90028, 48 h, read-out: Inhibitory effect (%) C. albicans ATCC 90028", "result": "-27.5 ± 15", "unit": "%"}, {"measurement": "inhibition at 50 µM", "setting": "[2]", "result": "5.7 ± 2.1", "unit": "%"}, {"measurement": "MIC against E. coli", "setting": "[3]", "result": 250, "unit": "mg/L"}, {"measurement": "MIC against C. albicans", "setting": "[4]; ref 12", "result": 250, "unit": "mg/L"}, {"measurement": "MIC against C. albicans", "setting": "[4]; ref 41", "result": 180, "unit": "mg/L"}, {"measurement": "inhibition at 50 µM", "setting": "[5]", "result": "-1.2 ± 2.5", "unit": "%"}, {"measurement": "Stability on storage", "setting": "[6]", "result": "stable"}, {"measurement": "inhibition at 50 µM", "setting": "[7]", "result": "-6.7 ± 6.4", "unit": "%"}, {"measurement": "MIC against S. aureus", "setting": "[8]", "result": 250, "unit": "mg/L"}, {"measurement": "Inhibitory effect (%) E. faecalis ATCC 29212", "setting": "[9]", "result": "19.7±6.2", "unit": "%"}, {"measurement": "inhibition at 50 µM", "setting": "[9]; Enterococcus faecalis, ATCC29212, 24 h, read-out: Inhibitory effect (%) E. faecalis ATCC 29212", "result": 20, "unit": "%"}, {"measurement": "MIC against S. pyogenes", "setting": "[10]", "result": 85, "unit": "mg/L"}, {"measurement": "inhibition at 50 µM", "setting": "[11]", "result": "1.3 ± 5.1", "unit": "%"}, {"measurement": "MIC against P. aeruginosa", "setting": "[12]", "result": 250, "unit": "mg/L"}, {"measurement": "cytotoxicity at 24 h, 50 µM", "setting": "[13]", "result": 14, "unit": "%"}, {"measurement": "Cytotoxicity (%) Huh-7 cells", "setting": "[14]", "result": "13.7±2.7", "unit": "%"}]}]}
